Data from publication PMC4695825 (Pharmaceutics, 2015).
Counter-ions that a name gives are not always drawn. Like-named read-outs stand apart in the source and are kept apart here. Blank lines part the entries; values can stand above or below the compound they belong to.

Assays:
[1] = mean ± SD, n = 6; for Microneedle cumulative amount after 12 h (Qs): skin treated with 500 μm microneedle roller
Procedure: Frozen porcine ears were obtained from Animal Technologies, Tyler, TX, USA. Skin pieces were thawed at ambient temperatures and carefully shaved using an electric clipper (Wahl, Sterling, IL, USA). Full thickness skin was prepared by removing the subcutaneous fat from the underlying cartilage. The average thickness of the skin membrane was measured with a Digimatic Micrometer (Mitutoyo, Tokyo, Japan). Skin samples were maintained at −20 °C for storage. Prior to experiments, the skin samples were thawed at room temperature before use.
In vitro permeation experiments were conducted using a six-celled, static, vertical Franz diffusion cell system (PermeGear, Hellertown, PA, USA). Each cell contained a top donor compartment and a lower receptor compartment with a magnetic stirrer, sampling port, and water jacket maintained at 37 °C to simulate normal body temperature by Thermo Haake DC10-P5/U heating circulator bath (ThermoFisher Scientific, Waltham, MA, USA). The receptor compartment diffusion area was 1.77 cm^2 with a volume capacity of 12 mL filled with PBS. Skin samples obtained from different pigs were placed between the upper donor chamber and lower receiver chamber of the vertical Franz diffusion cells, which were sealed using high-vacuum grease (Dow Corning, Midland, MA, USA) and a metal clamp. Solid microneedle rollers were used to created microchannels in porcine skin. Full thickness microneedle-treated porcine skins were mounted on three-receptor compartments and untreated porcine skins were placed on the remaining three-receptor compartments to serve as controls, and diffusion experiments for the two drugs were replicated six times (n = 6). The microneedle roller was applied fifteen times to each skin sample to increase the number of microconduits for enhanced transdermal drug delivery. […] The sampling ports were also covered with parafilm to further reduce evaporation. […] Receptor chambers were replenished with an equal volume of fresh, pre-warmed PBS maintained at 37 °C. All samples were stored at 4 °C until analysis by LC–MS. The cumulative amount of each drug permeating the excised full thickness porcine skin was plotted as a function of time. The slope and intercept of the linear portion were derived by linear regression analysis. Steady state flux was calculated from the linear portion of the cumulative amount versus time curve.
Chromatographic separation was carried out on the reverse-phase Agilent Zorbax Eclipse Plus C18 (100 mm × 2.1 mm, 3.5 microns) analytical column, which was protected by a guard column with the same stationary phase (12.5 mm × 4.6 mm, 5 microns) (Agilent Technologies, Palo Alto, CA, USA). The column temperature was set at 40 °C, and the autosampler temperature was set at 4 °C. The mobile phase consisted of 0.1% formic acid in water (solvent A), and 0.1% formic acid in methanol (solvent B). […] A post-run time of 2 min for mobile phase equilibration was used after each sample run. Calibration curve standards were freshly prepared in PBS buffer solution. The MS data were collected in positive electro spray ionization tandem mass spectrometry (ESI MS/MS) mode. Nebulizer temperature was 350 °C, nebulizer pressure was 50 psi, and the drying gas flow rate was 10.0 L/min. Compounds were quantified in positive ESI MS/MS mode by quantifying the specific product ion.
Flux values were calculated using the steady-state portion of the cumulative amount versus time curves. Six replicates were used for the study.

[2] = cited from earlier work; for logP / water solubility: no reference given
[3] = cited from earlier work
[4] = design: method as in PMID 24333401; conditions: nanostructured lipid carrier; cited from earlier work
[5] = design: method as in PMID 20188808; conditions: 400 μm needle length, cited from earlier work

Microneedle-facilitated transdermal flux ([1]; full thickness porcine ear skin treated with 500 μm stainless steel microneedle roller, 37 °C, donor amantadine ~50 mg/mL or pramipexole ~1 mg/mL, steady state): 134.04 ± 0.98 μg/cm^2/h
Microneedle cumulative amount after 12 h (Qs) ([1]; 12 h, listed as Pramipexole): 1583.43 ± 72.99 μg/cm^2
Microneedle cumulative amount after 12 h (Qs) ([1]; 12 h, listed as pramipexole): 1583.43 μg/cm^2
Passive (control) transdermal flux ([1]; untreated full thickness porcine ear skin, 37 °C, donor amantadine ~50 mg/mL or pramipexole ~1 mg/mL, steady state): 134.83 ± 13.66 μg/cm^2/h
Passive (control) cumulative amount after 12 h (Qs) ([1]; untreated full thickness porcine ear skin, 12 h): 1607.86 ± 35.77 μg/cm^2
SMILES: CCCN[C@H]1CCc2nc(N)sc2C1 [pramipexole dihydrochloride]
logP [2]: 1.2
water solubility [2]: > 20 mg/mL
octanolphosphate buffer partition coefficient ([2]; pH 7.4): 0.135
pharmacokinetic half-life [3]: 6 to 8 h

SMILES: Cc1cc2c(s1)Nc1ccccc1N=C2N1CCN(C)CC1 [olanzapine]
Change in transdermal permeation rate after microneedle device pretreatment [4]: slight but not statistically significant increase

SMILES: NC12CC3CC(CC(C3)C1)C2 [amantadine hydrochloride, Amantadine hydrochloride]
partition coefficient [2]: 2.44
logP [2]: 2.4
water solubility [2]: 50 mg/mL
pharmacokinetic half-life [3]: 10 h

SMILES: Nc1nc2c(ncn2COCCO)c(=O)[nH]1 [acyclovir]
Flux enhancement after microneedle array pretreatment ([5]; 2000 needles/cm^2): significant enhancement
Flux enhancement after microneedle array pretreatment ([5]; 5625 needle/cm^2): lower enhancement
